Assay results from patent US4499104A, “Imidazole compound, the process for its preparation, and therapeutically active compositions containing same” (priority 1976, dated 1985).
Read-outs that look alike come from different tables or passages of the source.

Columns and labels:
Acute toxicity, mouse = conditions: in vivo, read-out: DL50 and L.F.
[1] = Anticonvulsive activity against strychnine; assay type: in vivo, Rockland-Ocefa mice; conditions: for Protection from convulsivant strychnine, first value: first of two values; for Protection from convulsivant strychnine, second value: second of two values
Experimental: Rockland-Ocefa mice of both sexes weighing 22±3 g and fasting for 16 hours were used. The convulsive agents were administered i.p. in doses of 2 mg/kg of strychnine sulphate and 110 mg/kg of cardiazole.

human = test: Human therapy; assay type: in vivo
[2] = Edema by carrageen in normal and adrenoprival (suprarenectomised) rats; assay type: in vivo, rat; parameters: Edema by carrageen: unit not given beside the values
Experimental: A 1% physiological solution of carrageen was used. Rats of the Wistar-Roux-Ocefa stock having a weight of 150±30 g were used. The drugs were suspended in 1% carboxymethylcellulose or dissolved in distilled water and administered orally one hour before the inflammatory agent in a volume of 0.5 ml/100 g. The carrageen was adminstered subcutaneously in the subplanetary region of one of the rear paws. The volume of the paw was measured platysmagraphically initially and then after 1.5 hour, 3 hours and 5 hours after administering the carrageen. One inflammation unit was defined as the displacement of 0.01 ml of Hg.
The edema was evaluated as the difference in volume of the rear paw before and after the carrageen. The DE 50 was calculated by the probits method and graphically. The comparison drugs used were phenylbutazone and niflumic acid.
To evaluate if the activity of the chlorophenazole on edema by carrageen was influenced by stimulation of the suprarenes, experiments were carried out with suprarenectomised rats. Normal rats were also compared with falsely operated rats to evaluate the influence of the operational trauma.

[3] = Hot plate method (thermal stimulus), analgesic activity; assay type: in vivo, Male mice
Experimental: This is based on the time (seconds) taked by the mouse for removing his paws from a plate heated to 56° C. Male mice were used of weight 25 to 27 g, preselected so that all reacted in a time less than 20 seconds.
The reaction time was measured 15, 30 and 60 minutes after administering the drugs. The chlorophenazole was tested orally and subcutaneously, both alone and associated with morphine hydrochloride. […] (FIGS. 2 and 3).

Cc1[nH]cnc1-c1ccc(Cl)cc1 [Chlorophenazole, 4-(p-chlorophenyl)-5-methylimidazole]
LD50 (Acute toxicity, mouse; ip): 175 mg/kg
LD50 (Acute toxicity, mouse; po, os): 534 mg/kg
Protection from convulsivant strychnine, first value ([1]; 50 mg/kg, 15'): 7.0
Protection from convulsivant strychnine, second value ([1]; 50 mg/kg, 15'): 7.4
Protection from convulsivant strychnine, first value ([1]; 50 mg/kg, 30'): 12.8
Protection from convulsivant strychnine, second value ([1]; 50 mg/kg, 30'): 12.6
Protection from convulsivant strychnine, first value ([1]; 50 mg/kg, 90'): 8.7
Protection from convulsivant strychnine, second value ([1]; 50 mg/kg, 90'): 13.8
Protection from convulsivant strychnine, first value ([1]; 100 mg/kg, 15'): 11.7
Protection from convulsivant strychnine, second value ([1]; 100 mg/kg, 15'): 19.5
Protection from convulsivant strychnine, first value ([1]; 100 mg/kg, 30'): 11.3
Protection from convulsivant strychnine, second value ([1]; 100 mg/kg, 30'): 13.8
Protection from convulsivant strychnine, first value ([1]; 100 mg/kg, 90'): 9.5
Protection from convulsivant strychnine, second value ([1]; 100 mg/kg, 90'): 11.5
Protection from convulsivant strychnine, first value ([1]; 200 mg/kg, 15'): 28.6
Protection from convulsivant strychnine, second value ([1]; 200 mg/kg, 15'): 18.3
Protection from convulsivant strychnine, first value ([1]; 200 mg/kg, 30'): 12.8
Protection from convulsivant strychnine, second value ([1]; 200 mg/kg, 30'): 16.0
Protection from convulsivant strychnine, first value ([1]; 200 mg/kg, 90'): 18.2
Protection from convulsivant strychnine, second value ([1]; 200 mg/kg, 90'): 21.0
pharmacological results in human therapy (human): fully confirmed in human therapy
dependence of activity on the suprarenal cortex ([2]; adrenoprival rats): independent of the suprarenal cortex
Edema by carrageen ([2]; adrenoprival rats, 10 mg/kg, 1.5 hours): 22
Edema by carrageen ([2]; adrenoprival rats, 10 mg/kg, 3 hours): 27
Edema by carrageen ([2]; adrenoprival rats, 10 mg/kg, 5 hours): 55
Edema by carrageen ([2]; adrenoprival rats, 20 mg/kg, 1.5 hours): 16
Edema by carrageen ([2]; adrenoprival rats, 20 mg/kg, 3 hours): 18
Edema by carrageen ([2]; adrenoprival rats, 20 mg/kg, 5 hours): 45
Edema by carrageen ([2]; adrenoprival rats, 40 mg/kg, 1.5 hours): 13
Edema by carrageen ([2]; adrenoprival rats, 40 mg/kg, 3 hours): 20
Edema by carrageen ([2]; adrenoprival rats, 40 mg/kg, 5 hours): 39
Edema by carrageen ([2]; normal rats, 10 mg/kg, 1.5 hours): 15
Edema by carrageen ([2]; normal rats, 10 mg/kg, 3 hours): 35
Edema by carrageen ([2]; normal rats, 10 mg/kg, 5 hours): 58
Edema by carrageen ([2]; normal rats, 20 mg/kg, 1.5 hours): 15
Edema by carrageen ([2]; normal rats, 20 mg/kg, 3 hours): 29
Edema by carrageen ([2]; normal rats, 20 mg/kg, 5 hours): 44
Edema by carrageen ([2]; normal rats, 40 mg/kg, 1.5 hours): 15
Edema by carrageen ([2]; normal rats, 40 mg/kg, 3 hours): 23
Edema by carrageen ([2]; normal rats, 40 mg/kg, 5 hours): 42
reaction time relative to control mice ([3]; 50 mg/kg oral): significantly prolongs the reaction time relative to the control mice
effect on morphine analgesia ([3]; associated with morphine hydrochloride): evident increase exerted by the drug on morphine analgesia
